Read-outs that look alike come from different tables or passages of the source.
Target: Tau-FynSH3 interaction (Homo sapiens (Human), UniProt P10636)
Experiment: Tau-FynSH3 AlphaScreen
Assay type: binding
Conditions: for lower / reduced AlphaScreen activity: compared to compound no. 20
Text: Human Fyn-SH3 domain with GST-tag at the N-terminus and a Strep-tag II ([…]) at the C-terminus (GST-Fyn-SH3-Strep) was cloned into pPR-IBA1 vector (IBA Lifesciences) (Cochran, et al. (2014) J. Biomol. Screen. 19, 1338-1349). Codon-optimized human 4R2N Tau for E. coli expression with a Strep-tag II at the C-terminus (His-Tau-Strep) was cloned into pET-28a(+) vector (Novagen). The constructs were transformed into E. coli BL-21(DE3) competent cells (Novagen). For GST-Fyn-SH3-Strep purification, a single colony was inoculated in Luria-Bertani (LB) broth at 37° C. overnight. 10 mL cell culture was added into 500 mL LB medium and cultured at 37° C. 0.5 mM Isopropyl β-D-1-thiogalactopyranoside (IPTG) was added into the culture when OD600 reached 0.7. Cells were further cultured at 25° C. for 4 hours and harvested. Cell pellet was resuspended in lysis buffer (20 mM Tris pH 7.9, 300 mM NaCl, 1 mM TCEP) with 1 tablet of EDTA-free protease inhibitors (ThermoFisher) and 1 mg/ml lysozyme. Cells were disrupted by sonication and debris was removed by centrifugation at 9500 rpm for 1 hour. Supernatant was loaded onto a glutathione-sepharose column (Cytiva). The column was washed in lysis buffer and protein eluted in lysis buffer containing 25 mM reduced glutathione. For His-Tau-Strep protein purification, cells were inoculated in LB broth medium and cultured at 37° C. overnight. A 10 mL overnight culture was added to 500 mL of auto-induction medium (Studier, F. W. (2005) Protein Expr Purif 41, 207-34) and cells were cultured at 37° C. for about 5 hours. The temperature was lowered to 18° C., and cells were cultured overnight. Cells were harvested and resuspended in lysis buffer with 20 mM imidazole, protease inhibitors, and lysozyme. Cells were disrupted by sonication and cell pellets were spun down at 9500 rpm for 1 hour. Supernatant was loaded onto Ni-NTA column (Cytiva) and the column was washed in lysis buffer with 20 mM imidazole. His-Tau-Strep protein was eluted in lysis buffer containing 400 mM imidazole. Both eluted GST-Fyn-SH3-Strep and His-Tau-Strep protein solutions were passed through G-25 desalting column (Cytiva) with lysis buffer and loaded onto high capacity Strep-Tactin column (IBA Lifesciences). The columns were washed in Buffer W (IBA Life sciences) and proteins were eluted in Buffer E (IBA life sciences). The eluted proteins were passed through G-25 desalting column again. Both GST-Fyn-Strep and His-Tau-Strep proteins were concentrated and diluted 1:1 in ethylene glycol as a cryoprotectant for storage at −80° C.
AlphaScreen was conducted with 10 µg/mL of glutathione donor beads (PerkinElmer, Waltham, MA) and nickel chelate acceptor beads (PerkinElmer) in 10 mM Bis-Tris (pH 7.0), 1 mM TCEP, 0.02% casein, and 0.1% Tween-20. Compounds were plated first followed by addition of one the proteins at 600 nM and incubation for 30 min. The second protein was added and incubated for 30 mn, then the beads were added simultaneously and the final mixture was incubated for 2 hours. Experiments were conducted in 384-well plates (6007290; PerkinElmer) and results were read on a PHERAstar plate reader (BMG Labtech, Cary, NC).
˜50,000 compounds from the Enamine and Southern Research libraries were screened to identify Tau-FynSH3 interaction inhibitors using an AlphaScreen assay (Cochran, et al. (2014) J. Biomol. Screen. 19, 1338-1349). Compounds that were >3 standard deviations above mean inhibition were selected, yielding 1,852 hits (FIG. 1A). […]. These 39 compounds were tested in a live-cell BRET assay to measure Tau-Fyn interaction in cells. […]. Screen. 19, 1338-1349).

[1] = Table 3, read-out: Alpha screen IC50
[2] = Table 2, Tau-FynSH3 inhibitory activity in the AlphaScreen, read-out: IC50

Tau-FynSH3 interaction, sequence (P10636 other isoform, or with tags, fused parts or gaps): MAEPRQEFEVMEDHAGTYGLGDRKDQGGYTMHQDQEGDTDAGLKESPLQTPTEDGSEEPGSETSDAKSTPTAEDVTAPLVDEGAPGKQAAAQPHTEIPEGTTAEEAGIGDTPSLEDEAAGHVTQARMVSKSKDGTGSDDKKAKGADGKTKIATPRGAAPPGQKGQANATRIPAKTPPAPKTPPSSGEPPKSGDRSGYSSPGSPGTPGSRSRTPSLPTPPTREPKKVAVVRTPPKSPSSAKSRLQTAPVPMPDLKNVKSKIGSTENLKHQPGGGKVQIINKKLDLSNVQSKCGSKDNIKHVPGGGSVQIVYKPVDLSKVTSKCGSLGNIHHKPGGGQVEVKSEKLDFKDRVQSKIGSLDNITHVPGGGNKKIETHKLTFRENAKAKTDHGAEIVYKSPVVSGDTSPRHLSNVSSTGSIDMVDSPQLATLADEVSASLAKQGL

IC50 [1] [µM] | Alpha screen IC50 (μM) (Table 3) | SMILES | further results
6.78 |  | O=C(CCN1C(=O)CSc2ccc(Cl)cc21)Nc1nnc(-c2ccccn2)[nH]1 [compound 10, 3-(6-CHLORO-3-OXO-2H-BENZO[B][1,4]THIAZIN-4(3H)-YL)-N-(5-(PYRIDIN-2-YL)-4H-1,2,4-TRIAZOL-3-YL)PROPANAMIDE] | 
3.45 |  | O=C(CCN1C(=O)CSc2cc(C(F)(F)F)ccc21)Nc1nnc(-c2ccccn2)[nH]1 [compound 11, 3-(3-Oxo-7-(TRIFLUOROMETHYL)-2H-BENZO[B][1,4]THIAZIN-4(3H)-YL)-N-(5-(PYRIDIN-2-YL)-4H-1,2,4-TRIAZOL-3-YL)PROPANAMIDE] | 
5.42 |  | O=C(CN1C(=O)CSc2cc(C(F)(F)F)ccc21)Nc1nnc(-c2ccccn2)[nH]1 [compound 17, 2-(3-OXO-7-(TRIFLUOROMETHYL)-2H-BENZO[B][1,4]THIAZIN-4(3H)-YL)-N-(5-(PYRIDIN-2-YL)-4H-1,2,4-TRIAZOL-3-YL)ACETAMIDE] | 
 | Inactive | O=C(CN1C(=O)CSc2ccccc21)Nc1nnc(-c2cccnc2)[nH]1 [compound 24, 2-(3-OXO-2,3-DIHYDRO-4H-BENZO[B][1,4]THIAZIN-4-YL)-N-(5-(PYRIDIN-3-YL)-4H-1,2,4-TRIAZOL-3-YL)ACETAMIDE] | 
 | Inactive | O=C(CN1C(=O)CSc2ccccc21)Nc1nnc(-c2ccncc2)[nH]1 [compound 25, 2-(3-Oxo-2,3-DIHYDRO-4H-BENZO[B][1,4]THIAZIN-4-YL)-N-(5-(PYRIDIN-4-YL)-4H-1,2,4-TRIAZOL-3-YL)ACETAMIDE] | 
 | Inactive | O=C1COc2ccccc2N1Cc1nnc(-c2ccccn2)[nH]1 [compound 28, 4-((5-(PYRIDIN-2-YL)-4H-1,2,4-TRIAZOL-3-YL)METHYL)-2H-BENZO[B][1,4]OXAZIN-3(4H)-ONE] | 
 | Inactive | O=C1CCc2ccccc2N1Cc1nnc(-c2ccccn2)[nH]1 [compound 29, 1-((5-(PYRIDIN-2-YL)-4H-1,2,4-TRIAZOL-3-YL)METHYL)-3,4-DIHYDROQUINOLIN-2(1H)-ONE] | 
10.6 |  | O=c1sc2ccccc2n1Cc1nnc(-c2ccccn2)[nH]1 [compound 30, 3-((5-(PYRIDIN-2-YL)-4H-1,2,4-TRIAZOL-3-YL)METHYL)BENZO[D]THIAZOL-2(3H)-ONE] | 
 | Inactive | O=C(CCN1C(=O)CSc2ccccc21)Nc1ccccc1C(F)(F)F [compound 36, 3-(3-OXO-2,3-DIHYDRO-4H-BENZO[B][1,4]THIAZIN-4-YL)-N-(2-(TRIFLUOROMETHYL)PHENYL) PROPANAMIDE] | 
 | Inactive | O=C(CCN1C(=O)CSc2ccccc21)Nc1ccc(-c2ccccn2)cc1 [compound 38, 3-(3-Oxo-2,3-DIHYDRO-4H-BENZO[B][1,4]THIAZIN-4-YL)-N-(4-(PYRIDIN-2-YL)PHENYL)PROPANAMIDE] | 
 | Inactive | O=C(CCN1C(=O)CSc2ccccc21)Nc1ccc(-c2ccccc2)cc1 [compound 39, N-([1,1′-BIPHENYL]-4-YL)-3-(3-Oxo-2,3-DIHYDRO-4H-BENZO[B][1,4]THIAZIN-4-YL)PROPANAMIDE] | 
 | Inactive | O=C(CCN1C(=O)CSc2ccccc21)Nc1nnn[nH]1 [compound 40, 3-(3-OXO-2,3-DIHYDRO-4H-BENZO[B][1,4]THIAZIN-4-YL)-N-(1H-TETRAZOL-5-YL)PROPANAMIDE] | 
 | Inactive | O=C(CCN1C(=O)CSc2ccccc21)Nc1ccc(-c2ncc[nH]2)cc1 [compound 41, N-(4-(1H-IMIDAZOL-2-YL)PHENYL)-3-(3-Oxo-2,3-DIHYDRO-4H-BENZO[B][1,4]THIAZIN-4-YL)PROPANAMIDE] | 
 | Inactive | O=C(CCN1C(=O)CSc2ccccc21)Nc1ccc(-c2cncnc2)cc1 [compound 42, 3-(3-OXO-2,3-DIHYDRO-4H-BENZO[B][1,4]THIAZIN-4-YL)-N-(4-(PYRIMIDIN-5-YL)PHENYL) PROPANAMIDE] | 
 | Inactive | O=C(CCN1C(=O)COc2ccccc21)Nc1nnc(-c2ccccn2)[nH]1 [compound 43, 3-(3-Oxo-2,3-DIHYDRO-4H-BENZO[B][1,4]OXAZIN-4-YL)-N-(5-(PYRIDIN-2-YL)-4H-1,2,4-TRIAZOL-3-YL)PROPANAMIDE] | IC50 [2]: > 100 µM
 | Inactive | O=C(CN1C(=O)CSc2ccccc21)Nc1cccc(C(=O)N2CCOCC2)c1 [compound 44, N-(3-(MORPHOLINE-4-CARBONYL)PHENYL)-2-(3-OXO-2,3-DIHYDRO-4H-BENZO[B][1,4]THIAZIN-4-YL)ACETAMIDE] | 
2.96 |  | O=C(CN1C(=O)COc2cc(F)ccc21)Nc1nnc(-c2ccccn2)[nH]1 [compound 46, 2-(7-FLUORO-3-OXO-2,3-DIHYDRO-4H-BENZO[B][1,4]OXAZIN-4-YL)-N-(5-(PYRIDIN-2-YL)-4H-1,2,4-TRIAZOL-3-YL)ACETAMIDE] | 
1.2 |  | O=C(CN1C(=O)CCc2cc(Cl)ccc21)Nc1nnc(-c2ccccn2)[nH]1 [compound 48, 2-(6-CHLORO-2-OXO-3,4-DIHYDROQUINOLIN-1(2H)-YL)-N-(5-(PYRIDIN-2-YL)-4H-1,2,4-TRIAZOL-3-YL)ACETAMIDE] | 
1.6 |  | COc1ccc2c(c1)N(CC(=O)Nc1nnc(-c3ccccn3)[nH]1)C(=O)CO2 [compound 49, 2-(6-METHOXY-3-OXO-2,3-DIHYDRO-4H-BENZO[B][1,4]OXAZIN-4-YL)-N-(5-(PYRIDIN-2-YL)-4H-1,2,4-TRIAZOL-3-YL)ACETAMIDE] | 
1.6 |  | COc1ccc2c(c1)N(CC(=O)Nc1nnc(-c3ccccn3)[nH]1)C(=O)CC2 [compound 50, 2-(7-METHOXY-2-OXO-3,4-DIHYDROQUINOLIN-1(2H)-YL)-N-(5-(PYRIDIN-2-YL)-4H-1,2,4-TRIAZOL-3-YL)ACETAMIDE] | 
1.6 |  | O=C(CN1C(=O)CCc2cc(F)ccc21)Nc1nnc(-c2ccccn2)[nH]1 [compound 51, 2-(6-FLUORO-2-OXO-3,4-DIHYDROQUINOLIN-1(2H)-YL)-N-(5-(PYRIDIN-2-YL)-4H-1,2,4-TRIAZOL-3-YL)ACETAMIDE] | 
1.6 |  | O=C(CN1C(=O)COc2cc(Cl)ccc21)Nc1nnc(-c2ccccn2)[nH]1 [compound 52, 2-(7-CHLORO-3-OXO-2,3-DIHYDRO-4H-BENZO[B][1,4]OXAZIN-4-YL)-N-(5-(PYRIDIN-2-YL)-4H-1,2,4-TRIAZOL-3-YL)ACETAMIDE] | 
1.6 |  | Cc1ccc2c(c1)OCC(=O)N2CC(=O)Nc1nnc(-c2ccccn2)[nH]1 [compound 53, 2-(7-METHYL-3-OXO-2,3-DIHYDRO-4H-BENZO[B][1,4]OXAZIN-4-YL)-N-(5-(PYRIDIN-2-YL)-4H-1,2,4-TRIAZOL-3-YL)ACETAMIDE] | 
1.4 |  | Cc1ccc2c(c1)CCC(=O)N2CC(=O)Nc1nnc(-c2ccccn2)[nH]1 [compound 54, 2-(6-METHYL-2-OXO-3,4-DIHYDROQUINOLIN-1(2H)-YL)-N-(5-(PYRIDIN-2-YL)-4H-1,2,4-TRIAZOL-3-YL)ACETAMIDE] | 
 |  | O=C(CN1CCCCC1)Nc1nnc(-c2ccccn2)[nH]1 [compound 65] | lower / reduced AlphaScreen activity: 8-10 fold
 |  | O=C(CN1CCOCC1)Nc1nnc(-c2ccccn2)[nH]1 [compound 66] | lower / reduced AlphaScreen activity: 8-10 fold
 |  | O=C(CN1CCSc2ccccc21)Nc1ncc(-c2ccccn2)o1 [compound 68] | AlphaScreen activity (in words): lost activity; IC50 [2]: > 100 µM
 |  | O=C(CN1C(=O)CCc2ccccc21)Nc1nnc(-c2ccccn2)[nH]1 [compound no. 2, 2-(2-OXO-3,4-DIHYDROQUINOLIN-1(2H)-YL)-N-(5-(PYRIDIN-2-YL)-4H-1,2,4-TRIAZOL-3-YL)ACETAMIDE] | IC50 [2]: 2.72 µM
